Assay results as given in patent US7604978B2, “Inhibition of biofilm formation” (Sequoia Sciences, Inc., priority 2004, dated 2009).

Columns and labels:
Format in all cases: cell-based
[1] = test system: E. coli K12 [R1drd19]; test: Inhibition of biofilm formation (biofilm mass, OD540)
Protocol: (§1) Inhibition of biofilm formation by E. coli K12 [R1drd19], P. aeruginosa PAO1, and V harveyi BB120 by the addition of 10 μg/mL ursolic acid. For E. coli K12 [R1drd19], data were collected 16 hours after addition of ursolic acid to a 24 hour biofilm in LB medium; for P. aeruginosa PAO1, data were collected 18 hours after addition of ursolic acid with inoculation in LB medium plus 1% sodium citrate; and for V. harveyi BB120, data were collected 18 hours after addition of ursolic acid with inoculation in M9 medium. All biofilm mass readings at OD540 were normalized based on the reading of wild type without ursolic acid which was normalized to 1. One standard deviation is shown.

[2] = test system: P. aeruginosa PAO1; test: as above
Protocol: as §1

[3] = test system: V. harveyi BB120; test: as above
Protocol: as §1

[4] = test system: E. coli JM109; test: Inhibition of air-liquid interface biofilm; details: added with inoculation, E. coli JM109 in LB 0.2% glucose
Protocol: as §1
Example 1 was repeated, except ursolic acid was added with inoculation in E. coli JM109 grown in LB 0.2% glucose.

[5] = test system: E. coli K12 genes; test: DNA microarray, genes repressed by ursolic acid
Protocol: To identify the genes controlled by ursolic acid, E. coli K12 was grown in LB medium overnight, diluted 1:100 in fresh LB supplemented with 0, 10, or 30 μg/mL ursolic acid. The same amount of ethanol was supplemented to eliminate solvent effects. The cultures were grown to an OD600 of 0.9. The cells were centrifuged in a microcentrifuge for 15 seconds at 20,000×g in mini bead beater tubes (Biospec, Bartlesville, Okla.) that were cooled to −80° C. before sampling. The cell pellets were flash frozen in a dry ice-ethanol bath and stored at −80° C. until RNA isolation.
To lyse the cells, 1.0 mL RLT buffer (Qiagen, Inc., Valencia, Calif.) and 0.2 mL 0.1 mm zirconia/silica beads (Biospec) were added to the frozen bead beater tubes containing the cell pellets. The tubes were closed tightly and beat for 30 seconds at the maximum speed in a mini bead beater (cat. no. 3110BX, Biospec). The total RNA was isolated by following the protocol of the RNeasy Mini Kit (Qiagen) including an on-column DNase digestion with RNase-free DNase I (Qiagen). OD260 was used to quantify the RNA yield. OD260/OD280 and 23S/16S rRNA were measured using a 2100 Bioanalyzer (Agilent Technologies, Palo Alto, Calif.) to check the purity and integrity of RNA (RNeasy Mini handbook, Qiagen).
The E. coli DNA microarrays were prepared as described previously by Wei, Y. et al (Journal of Bacteriology, 2001, 183 (2) p. 545-556). Each gene probe was synthesized by PCR and has the size of the full open reading frame (200-2000 nt). The double-strand PCR products were denatured in 50% dimethyl sulfoxide and spotted onto aminosilane slides (Full Moon Biosystems, Sunnyvale, Calif.) as probes to hybridize with the mRNA-derived cDNA samples. It has been shown that each array can detect 4228 of the 4290 E. coli ORFs. Each gene has two spots per slide.
Briefly, the total RNA from the E. coli K12 samples grown with and without ursolic acid was first converted into labeled cDNA. […] The Cy3-labeled sample without ursolic acid and the Cy5-labeled ursolic acid sample (with 10 or 30 μg/mL ursolic acid) were hybridized on the first slide. Similarly, the Cy5-labeled sample without ursolic acid and the Cy3-labeled ursolic acid sample were hybridized on the second slide. Since each gene has two spots on a slide, the two hybridizations generated eight data points for each gene (four points for the sample without ursolic acid and four points for the ursolic acid sample). The microarray experiments with dye-swapping were repeated for both concentrations of ursolic acid.
The DNA microarrays were incubated in prehybridization solution (3.5×SSC [1×SSC is 0.15 M NaCl plus 0.015 M sodium citrate] [Invitrogen], 0.1% sodium dodecyl sulfate [SDS] [Invitrogen], and 0.1% bovine serum albumin [Invitrogen]) at 45° C. for 20 min. The arrays were rinsed with double-distilled water and were spun dry by centrifugation. Labeled cDNA (6 μg) was concentrated to 10 μl of total volume and was mixed with 10 μl of 4×cDNA hybridization solution (Full Moon Biosystems) and 20 μl of formamide (EM Science, Gibbstown, N.J.). The hybridization mix was heated to 95° C. for 2 min and was added to the DNA microarrays; each array was covered with a coverslip (Corning, Big Flats, N.Y.) and was incubated overnight at 37° C. for hybridization. When the hybridization was finished, the coverslips were removed in 1×SSC-0.1% SDS at room temperature, and the arrays were washed once for 5 min in 1×SSC-0.1% SDS at 40° C., twice for 10 min in 0.1×SSC-0.1% SDS at 40° C., and twice for 1 min in 0.1×SSC at 40° C. The arrays were quickly rinsed by dipping in room-temperature double-distilled water and were then spun dry by centrifugation. The hybridized slides were scanned with the Generation III Array Scanner (Molecular Dynamics Corp.). Readings at 570 and 670 nm was used to quantify the probes labeled with Cy3 and Cy5 separately. The signal was quantified with Array Vision 4.0 or 6.0 software (Imaging Research, St. Catherines, Ontario, Canada). […]

C[C@H]1[C@H](C)CC[C@]2(C(=O)O)CC[C@]3(C)C(=CC[C@@H]4[C@@]5(C)CC[C@H](O)C(C)(C)[C@@H]5CC[C@]43C)[C@H]12 [ursolic acid]
formation of biofilms [1]: reduces or inhibits the formation of biofilms
formation of biofilms [2]: reduces or inhibits the formation of biofilms
formation of biofilms [3]: reduces or inhibits the formation of biofilms
air-liquid interface biofilm [4]: inhibited air-liquid interface biofilm
ER (expression ratio) gene arsC ([5]; 10 μg/mL ursolic acid): −1.5
ER (expression ratio) gene b0309 ([5]; 10 μg/mL ursolic acid): −1.7
ER (expression ratio) gene b0484 ([5]; 10 μg/mL ursolic acid): −1.5
ER (expression ratio) gene b0485 ([5]; 10 μg/mL ursolic acid): −1.8
ER (expression ratio) gene b0829 ([5]; 10 μg/mL ursolic acid): −1.5
ER (expression ratio) gene b1729 ([5]; 10 μg/mL ursolic acid): −5.6
ER (expression ratio) gene b2379 ([5]; 10 μg/mL ursolic acid): −1.5
ER (expression ratio) gene b2789 ([5]; 10 μg/mL ursolic acid): −1.9
ER (expression ratio) gene cspF ([5]; 10 μg/mL ursolic acid): −1.6
ER (expression ratio) gene cspG ([5]; 10 μg/mL ursolic acid): −2.5
ER (expression ratio) gene cysB ([5]; 10 μg/mL ursolic acid): −1.7
ER (expression ratio) gene cysD ([5]; 10 μg/mL ursolic acid): −2.5
ER (expression ratio) gene cysI ([5]; 10 μg/mL ursolic acid): −1.5
ER (expression ratio) gene cysJ ([5]; 10 μg/mL ursolic acid): −3.6
ER (expression ratio) gene cysK ([5]; 10 μg/mL ursolic acid): −3.6
ER (expression ratio) gene frvR ([5]; 10 μg/mL ursolic acid): −5.4
ER (expression ratio) gene gntU_1 ([5]; 10 μg/mL ursolic acid): −1.5
ER (expression ratio) gene hdeA ([5]; 10 μg/mL ursolic acid): −1.7
ER (expression ratio) gene hdeB ([5]; 10 μg/mL ursolic acid): −1.8
ER (expression ratio) gene narH ([5]; 10 μg/mL ursolic acid): −1.6
ER (expression ratio) gene pheM ([5]; 10 μg/mL ursolic acid): −1.6
ER (expression ratio) gene pheP ([5]; 10 μg/mL ursolic acid): −1.5
ER (expression ratio) gene rimL ([5]; 10 μg/mL ursolic acid): −1.5
ER (expression ratio) gene rmf ([5]; 10 μg/mL ursolic acid): −1.5
ER (expression ratio) gene rpml ([5]; 10 μg/mL ursolic acid): −1.6
ER (expression ratio) gene slp ([5]; 10 μg/mL ursolic acid): −1.5
ER (expression ratio) gene ugpB ([5]; 10 μg/mL ursolic acid): −1.4
ER (expression ratio) gene ybhG ([5]; 10 μg/mL ursolic acid): −1.4
ER (expression ratio) gene ybiK ([5]; 10 μg/mL ursolic acid): −2.4
ER (expression ratio) gene yeeD ([5]; 10 μg/mL ursolic acid): −2.3
ER (expression ratio) gene yeeE ([5]; 10 μg/mL ursolic acid): −13
ER (expression ratio) gene yhaD ([5]; 10 μg/mL ursolic acid): −1.6
ER (expression ratio) gene yhaF ([5]; 10 μg/mL ursolic acid): −1.5
ER (expression ratio) gene yhaG ([5]; 10 μg/mL ursolic acid): −2
ER (expression ratio) gene yhaU ([5]; 10 μg/mL ursolic acid): −1.9
ER (expression ratio) gene yjeB ([5]; 10 μg/mL ursolic acid): −1.4
ER (expression ratio) gene arsC ([5]; 30 μg/mL ursolic acid): 1.4
ER (expression ratio) gene b0309 ([5]; 30 μg/mL ursolic acid): −1.3
ER (expression ratio) gene b0484 ([5]; 30 μg/mL ursolic acid): −1.1
ER (expression ratio) gene b0485 ([5]; 30 μg/mL ursolic acid): −1.3
ER (expression ratio) gene b0829 ([5]; 30 μg/mL ursolic acid): −1.5
ER (expression ratio) gene b1729 ([5]; 30 μg/mL ursolic acid): −2
ER (expression ratio) gene b2379 ([5]; 30 μg/mL ursolic acid): 1
ER (expression ratio) gene b2789 ([5]; 30 μg/mL ursolic acid): −2.5
ER (expression ratio) gene cspF ([5]; 30 μg/mL ursolic acid): −1.1
ER (expression ratio) gene cspG ([5]; 30 μg/mL ursolic acid): −1.7
ER (expression ratio) gene cysB ([5]; 30 μg/mL ursolic acid): −1.4
ER (expression ratio) gene cysD ([5]; 30 μg/mL ursolic acid): −2.5
ER (expression ratio) gene cysI ([5]; 30 μg/mL ursolic acid): −1.7
ER (expression ratio) gene cysJ ([5]; 30 μg/mL ursolic acid): −3.3
ER (expression ratio) gene cysK ([5]; 30 μg/mL ursolic acid): −3.3
ER (expression ratio) gene frvR ([5]; 30 μg/mL ursolic acid): −2
ER (expression ratio) gene gntU_1 ([5]; 30 μg/mL ursolic acid): −1.4
ER (expression ratio) gene hdeA ([5]; 30 μg/mL ursolic acid): −1.4
ER (expression ratio) gene hdeB ([5]; 30 μg/mL ursolic acid): −1.4
ER (expression ratio) gene narH ([5]; 30 μg/mL ursolic acid): −1.4
ER (expression ratio) gene pheM ([5]; 30 μg/mL ursolic acid): 1
ER (expression ratio) gene pheP ([5]; 30 μg/mL ursolic acid): −1.1
ER (expression ratio) gene rimL ([5]; 30 μg/mL ursolic acid): 1
ER (expression ratio) gene rmf ([5]; 30 μg/mL ursolic acid): 1
ER (expression ratio) gene rpml ([5]; 30 μg/mL ursolic acid): 1
ER (expression ratio) gene slp ([5]; 30 μg/mL ursolic acid): −1.6
ER (expression ratio) gene ugpB ([5]; 30 μg/mL ursolic acid): −1.5
ER (expression ratio) gene ybhG ([5]; 30 μg/mL ursolic acid): −1.4
ER (expression ratio) gene ybiK ([5]; 30 μg/mL ursolic acid): -2.2
ER (expression ratio) gene yeeD ([5]; 30 μg/mL ursolic acid): −1.4
ER (expression ratio) gene yeeE ([5]; 30 μg/mL ursolic acid): −2
ER (expression ratio) gene yhaD ([5]; 30 μg/mL ursolic acid): −2.6
ER (expression ratio) gene yhaF ([5]; 30 μg/mL ursolic acid): −2.4
ER (expression ratio) gene yhaG ([5]; 30 μg/mL ursolic acid): −2.2
ER (expression ratio) gene yhaU ([5]; 30 μg/mL ursolic acid): −4.2
ER (expression ratio) gene yjeB ([5]; 30 μg/mL ursolic acid): 1
